What all share (experiment): NCI-60 cell line screen, 48 h
The test system of test [1] is LOX IMVI melanoma.
Test [2] has as its system OVCAR-5 ovarian.
The subject of test [3] is SF-268 CNS.
The test system of test [4] is HCT-15 colon.
Test [5] relates to PC-3 prostate.
Test [6] deals with HOP-62 NSCLC.
Test [7] deals with K-562 leukemia.
The subject of test [8] is OVCAR-3 ovarian.
For test [9], the system named is BT-549 breast.
For test [10], the system named is TK-10 renal.

The structures appear in SMILES notation.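 Tested at 5 concentrations; 48 h exposure; 96-well plates; endpoints linearly interpolated, else capped at highest concentration. TGI is the concentration that stops growth completely.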

As for `CN(C)CCn1c(=O)c2ccc(NCCNCCO)c3c(=O)c4cc(O)ccc4n(c1=O)c23`, the TGI in test [1] is 4.42 µM; in test [2], 16.1 µM; in test [3], 14.9 µM; in test [4] it was 53.8 µM; in test [5], 25.1 µM; in test [6], 4.16 µM. The TGI is more than 30.5 µM in test [7], 19.3 µM in test [8], 32.4 µM in test [9] and 21.1 µM in test [10].
For `C/C(=C/CC[C@](C)(OC1OC(CO)C(O)C(O)C1O)[C@H]1CC[C@]2(C)[C@@H]1CC[C@@H]1[C@@]3(C)CC[C@H](O)C(C)(C)[C@@H]3C[C@H](O)[C@]12C)CO` (stereo not given in full), the TGI in test [1] was 33.9 µM; in test [2] it was more than 100 µM; in [3], 90.7 µM; in test [4], 57.5 µM; in test [5], 98.2 µM; in test [6], 69.9 µM. The TGI is 62.2 µM in test [7], 79.7 µM in [8], 31.2 µM in [9] and more than 100 µM in test [10].
Consider `CCC1(O)CN(CCOC)[C@H]2C[C@@H]1C(=O)c1[nH]c3ccccc3c12` (stereo not given in full), for which the TGI in [1], in test [2], in test [3], in [4], in test [5] and in test [6] was more than 100 µM each time. Also, the TGI in test [7], in test [8], in [9] and in test [10] was more than 100 µM each time.
As for `COc1ccccc1OC/C(N=Cc1ccncc1)=N/NC(=O)c1ccncc1`, the TGI in [1], in test [2], in test [3], in test [4], in test [5] and in [6] was more than 100 µM in each case. Moreover, the TGI in [7], in test [8], in test [9] and in test [10] was more than 100 µM in each case.
On to `COc1cc(O)c2c(c1)C(O)C(O)CC1OC1C(=O)/C=C/CC(C)OC2=O` (stereo not given), for which the TGI in [1] was found to be 16.2 µM; in test [2] it was 31 µM; in test [3] it was 46.3 µM; in [4] it was 17 µM; in test [5], 24.9 µM; in test [6], 44.3 µM. In addition, the TGI in test [7] came out at 13.6 µM; in [8] it was 16.7 µM; in [9], 6.1 µM; in [10], 17.5 µM.
Consider `COC(=O)CNC(=O)/C=C/[C@H](O[Si](C)(C)C(C)(C)C)[C@H](/C=C/C(=O)NCC(=O)OC)O[Si](C)(C)C(C)(C)C`, for which the TGI in test [1], in test [2], in test [3], in [4], in [5] and in test [6] was more than 25 µM each time. Also, the TGI in [7], in test [8], in test [9] and in [10] was more than 25 µM each time.
Turning to `C/C(=N\O)c1ccc(Nc2c3ccccc3nc3occc23)cc1`, the TGI in test [1] was more than 50 µM; in [2], more than 50 µM; in test [3] it was more than 43.9 µM; in test [4] it was 4.07 µM; in test [5], more than 50 µM; in test [6], more than 24.1 µM. Also, the TGI in test [7] was more than 50 µM; in test [8], more than 50 µM; in test [9], more than 12.4 µM; in test [10] it was 25.4 µM.
`CC(C)[Si]1(C(C)C)OCC2OC(n3cnc4c(N)ncnc43)C(N)C2O[Si](C(C)C)(C(C)C)O1` (stereo not given): the TGI in test [1] was 21.3 µM; in [2] it was 67.6 µM; in test [3], 41.4 µM; in test [4], 23.8 µM; in test [5] it was more than 43 µM; in [6] it was more than 49.5 µM. For the same compound, the TGI in test [7] was found to be 36.9 µM; in [8], 20.6 µM; in test [9], 14.3 µM; in test [10], 28.9 µM.
On to `CSc1s[s+]c(SC)c1-c1ccccc1`, for which the TGI in test [1] amounted to 52 µM; in [2] it was 31.2 µM; in [3], 43 µM; in test [4], 41.5 µM; in test [5], 54.1 µM; in [6], 29.4 µM. In addition, the TGI in [7] was 50.3 µM; in test [8], 37.6 µM; in [9], 28.2 µM; in test [10], 32.4 µM.
With `CCCCC(=C=C1CCCCC1O)C1CCCN1C(=O)OC(C)(C)C` (stereo not given), the TGI in test [1] worked out at 32.3 µM; in [2], 29.4 µM; in test [3] it was 32.7 µM; in test [4], 32.3 µM; in test [5], 29.6 µM; in test [6], 31.7 µM. The TGI in [7] worked out at 34.1 µM; in test [8], 29.1 µM; in test [9], 35.4 µM; in test [10], 29.8 µM.
For `CN(C)CCNc1nc2ccccc2c2c1C(=O)c1ccccc1-2`, the TGI was 0.961 µM in test [1]; 5.25 µM in test [2]; 2.4 µM in test [3]; 1.57 µM in test [4]; 1.9 µM in test [5]; 3.72 µM in test [6]. The TGI is 0.396 µM in test [7], 8.4 µM in test [8], 3.14 µM in test [9] and 10.5 µM in [10].
With `O=C1O/C(=C\c2ccc(O)cc2)C(c2ccc(O)c(Cl)c2)=C1Br`, the TGI in test [1] turned out to be 61.2 µM; in test [2] it was 35.4 µM; in test [3], 45.2 µM; in [4], 26.7 µM; in test [5], 23.7 µM; in test [6] it was 35.3 µM. The TGI in test [7] came to 10.5 µM; in [8], 21.1 µM; in test [9], 23.8 µM; in test [10], 49.9 µM.
Regarding `CC(=O)c1nccc2c1c(C)nc1ccccc12`, the TGI in [1], in test [2], in test [3], in [4], in test [5] and in [6] was more than 100 µM throughout. For the same compound, the TGI in test [7], in [8], in test [9] and in test [10] was more than 100 µM each time.
Take `Cc1ccc(C2=Nn3c(nc4sc(-c5ccccc5)cc4c3=O)SC2)cc1`: the TGI in test [1], in [2], in test [3], in test [4], in test [5] and in [6] was more than 100 µM each time. The TGI in [7], in [8], in test [9] and in [10] was more than 100 µM throughout.
For the compound `COC(=O)c1cc2c3c(c(C(C)=O)c(OC)c2[nH]1)NCC3`, the TGI in [1], in [2], in [3], in test [4], in test [5] and in test [6] was more than 50 µM in each case. Besides, the TGI in test [7], in test [8], in test [9] and in [10] was more than 50 µM each time.
As to `BrCC[P+](c1ccccc1)(c1ccccc1)c1ccccc1`, the TGI is 17.6 µM in [1]; 26.8 µM in test [2]; 8.25 µM in test [3]; more than 100 µM in test [4]; 17.3 µM in [5]; 20.2 µM in test [6]. For the same compound, the TGI in test [7] came out at 30.9 µM; in [8] it was 11.7 µM; in test [9], 39.6 µM; in [10], 34.5 µM.
For the compound `COC1=CC2(C=CC1=O)CCN=c1c(O)c3c(c(O)c12)=NC=N3` (stereo not given), the TGI in test [1], in [2], in test [3], in [4], in test [5] and in test [6] was more than 100 µM in each case. The TGI in [7], in test [8], in test [9] and in test [10] was more than 100 µM in each case.
Consider `CSC1(SC)CCCCCCCCCCC1`, for which the TGI is 36.4 µM in test [1]; more than 100 µM in test [2]; more than 100 µM in test [3]; more than 100 µM in test [4]; more than 100 µM in test [5]; more than 100 µM in test [6]. Moreover, the TGI in test [7] was more than 100 µM; in test [8], 72.7 µM; in test [9] it was more than 100 µM; in test [10], more than 100 µM.
Regarding `O=C(O)CNC(=O)c1cccc2c(=O)c3ccccc3[nH]c12`, the TGI in test [1], in [2], in [3], in test [4], in test [5] and in test [6] was more than 100 µM in each case. For the same compound, the TGI in test [7], in test [8], in test [9] and in test [10] was more than 100 µM each time.
Turning to `O=C(O)c1ccccc1-c1ccccc1C(=O)c1ccccc1`, the TGI in [1], in test [2], in [3], in [4], in test [5] and in [6] was more than 100 µM each time. Also, the TGI in test [7], in test [8], in test [9] and in test [10] was more than 100 µM in each case.

The record behind these values is PubChem BioAssay (NCI).
